# Test results taken from PubChem BioAssay (NCI).
# Values joined by “and” are separate entries in the source; they are usually repeats but may differ in a detail not shown here. Identical values can stand only once.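 Values below derive from 48-hour exposures of cells grown in 96-well plates, with endpoints linearly interpolated between the two concentrations bracketing the appropriate inhibition level. GI50 marks 50% less growth. At the TGI there is no net growth.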
# Tests used:
# Assay in all cases: NCI tumour cell line growth inhibition, 48 h
# T-47D breast = test system: T-47D breast
# A498 renal = test system: A498 renal
# MDA-N = test system: MDA-N
# UACC-62 melanoma = test system: UACC-62 melanoma
# SK-MEL-5 melanoma = test system: SK-MEL-5 melanoma
# SK-MEL-28 melanoma = test system: SK-MEL-28 melanoma
# SF-539 CNS = test system: SF-539 CNS
# LOX IMVI melanoma = test system: LOX IMVI melanoma
# SK-MEL-2 melanoma = test system: SK-MEL-2 melanoma
# SR leukemia = test system: SR leukemia
# CCRF-CEM leukemia = test system: CCRF-CEM leukemia
# TK-10 renal = test system: TK-10 renal
# RXF 393 renal = test system: RXF 393 renal
# OVCAR-5 ovarian = test system: OVCAR-5 ovarian
# HOP-92 NSCLC = test system: HOP-92 NSCLC
# P388/ADR leukemia = test system: P388/ADR leukemia
# PC-3 prostate = test system: PC-3 prostate
# HT29 colon = test system: HT29 colon
# RPMI-8226 leukemia = test system: RPMI-8226 leukemia
# XF 498 CNS = test system: XF 498 CNS
# MDA-MB-231 breast = test system: MDA-MB-231 breast
# NCI-H226 lung = test system: NCI-H226 lung
# CAKI-1 renal = test system: CAKI-1 renal
# HCC-2998 colon = test system: HCC-2998 colon
# SN12C renal = test system: SN12C renal
# DU-145 prostate = test system: DU-145 prostate
# UACC-257 melanoma = test system: UACC-257 melanoma
# HOP-18 NSCLC = test system: HOP-18 NSCLC
# UO-31 renal = test system: UO-31 renal
# SF-268 CNS = test system: SF-268 CNS
# HCT-15 colon = test system: HCT-15 colon
# NCI-H460 lung = test system: NCI-H460 lung
# A549 NSCLC = test system: A549 NSCLC
# KM12 colon = test system: KM12 colon
# IGROV1 ovarian = test system: IGROV1 ovarian
# NCI-H522 lung = test system: NCI-H522 lung
# SF-295 CNS = test system: SF-295 CNS
# M14 melanoma = test system: M14 melanoma
# HS 578T breast = test system: HS 578T breast
# MDA-MB-435 = test system: MDA-MB-435
# SW-620 colon = test system: SW-620 colon
# K-562 leukemia = test system: K-562 leukemia
# OVCAR-4 ovarian = test system: OVCAR-4 ovarian
# HL-60(TB) leukemia = test system: HL-60(TB) leukemia
# OVCAR-8 ovarian = test system: OVCAR-8 ovarian
# OVCAR-3 ovarian = test system: OVCAR-3 ovarian
# HOP-62 NSCLC = test system: HOP-62 NSCLC
# COLO 205 colon = test system: COLO 205 colon
# DMS 114 small cell lung = test system: DMS 114 small cell lung
# SNB-78 CNS = test system: SNB-78 CNS
# MOLT-4 leukemia = test system: MOLT-4 leukemia
# DLD-1 colon = test system: DLD-1 colon
# SNB-75 CNS = test system: SNB-75 CNS
# EKVX NSCLC = test system: EKVX NSCLC
# MALME-3M melanoma = test system: MALME-3M melanoma
# SNB-19 CNS = test system: SNB-19 CNS
# M19-MEL melanoma = test system: M19-MEL melanoma
# DMS 273 small cell lung = test system: DMS 273 small cell lung
# BT-549 breast = test system: BT-549 breast
# MCF7 breast = test system: MCF7 breast
# SK-OV-3 ovarian = test system: SK-OV-3 ovarian
# ACHN renal = test system: ACHN renal
# 786-0 renal = test system: 786-0 renal
# HCT-116 colon = test system: HCT-116 colon
# P388 leukemia = test system: P388 leukemia
# U251 CNS = test system: U251 CNS
# NCI/ADR-RES ovarian = test system: NCI/ADR-RES ovarian
# NCI-H23 lung = test system: NCI-H23 lung
# SN12K1 renal = test system: SN12K1 renal
# KM20L2 colon = test system: KM20L2 colon
structure (smiles),measurement,setting,value
CCCCCCCCCCCCCCCCOP(=O)([O-])OCC[N+](C)(C)C,GI50,T-47D breast,4.42 µM
same,TGI,T-47D breast,16.2 µM and 35.9 µM
same,GI50,A498 renal,1.13 µM
same,TGI,A498 renal,5.24 µM and 37.4 µM
same,TGI,MDA-N,54.8 µM
same,GI50,UACC-62 melanoma,1.34 µM
same,GI50,SK-MEL-5 melanoma,1.92 µM
same,TGI,SK-MEL-5 melanoma,5.35 µM and 52 µM
same,GI50,SK-MEL-28 melanoma,3.65 µM
same,TGI,SK-MEL-28 melanoma,14.2 µM and 58.5 µM
same,GI50,SF-539 CNS,2.34 µM
same,TGI,SF-539 CNS,5.86 µM and 52.9 µM
same,GI50,LOX IMVI melanoma,1.36 µM
same,GI50,SK-MEL-2 melanoma,2.36 µM
same,TGI,SK-MEL-2 melanoma,7.05 µM and 46.9 µM
same,GI50,SR leukemia,0.546 µM
same,TGI,SR leukemia,3.46 µM and 28.5 µM
same,GI50,CCRF-CEM leukemia,1.09 µM and 9.72 µM
same,GI50,TK-10 renal,0.182 µM
same,GI50,RXF 393 renal,0.427 µM
same,GI50,OVCAR-5 ovarian,0.735 µM
same,TGI,OVCAR-5 ovarian,4.04 µM and 24.9 µM
same,GI50,HOP-92 NSCLC,1.14 µM
same,TGI,HOP-92 NSCLC,3.12 µM and 15.3 µM
same,TGI,P388/ADR leukemia,> 86.6 µM
same,GI50,PC-3 prostate,0.277 µM
same,TGI,PC-3 prostate,1.51 µM and 7.73 µM
same,GI50,HT29 colon,0.39 µM
same,GI50,RPMI-8226 leukemia,0.39 µM
same,TGI,XF 498 CNS,60.9 µM
same,GI50,MDA-MB-231 breast,1.19 µM
same,GI50,NCI-H226 lung,1.59 µM
same,GI50,CAKI-1 renal,0.931 µM
same,TGI,CAKI-1 renal,2.99 µM and 27.7 µM
same,GI50,HCC-2998 colon,1.06 µM
same,GI50,SN12C renal,2.74 µM
same,TGI,SN12C renal,10.7 µM and 56.6 µM
same,GI50,DU-145 prostate,4.01 µM
same,TGI,DU-145 prostate,14.7 µM and 39.9 µM
same,GI50,UACC-257 melanoma,2.31 µM
same,TGI,UACC-257 melanoma,6.98 µM and 64.7 µM
same,TGI,HOP-18 NSCLC,> 100 µM
same,GI50,UO-31 renal,1.47 µM
same,GI50,SF-268 CNS,2.93 µM
same,TGI,SF-268 CNS,13.7 µM and 52.7 µM
same,GI50,HCT-15 colon,0.842 µM
same,GI50,NCI-H460 lung,0.518 µM
same,GI50,A549 NSCLC,1.6 µM
same,GI50,KM12 colon,0.341 µM
same,TGI,KM12 colon,1.78 µM and 10.3 µM
same,GI50,IGROV1 ovarian,0.901 µM
same,TGI,IGROV1 ovarian,3.7 µM and 14 µM
same,GI50,NCI-H522 lung,0.885 µM
same,TGI,SF-295 CNS,53 µM
same,GI50,M14 melanoma,1.56 µM
same,GI50,HS 578T breast,4.21 µM
same,TGI,HS 578T breast,18.9 µM and 40.7 µM
same,GI50,MDA-MB-435,2 µM
same,TGI,MDA-MB-435,5.23 µM and 39.3 µM
same,GI50,SW-620 colon,2.08 µM
same,TGI,SW-620 colon,13.9 µM and 57 µM
same,TGI,K-562 leukemia,64.9 µM
same,GI50,OVCAR-4 ovarian,2.88 µM
same,TGI,OVCAR-4 ovarian,12.6 µM and 38.6 µM
same,GI50,HL-60(TB) leukemia,0.897 µM
same,TGI,HL-60(TB) leukemia,3.84 µM and 16.3 µM
same,GI50,OVCAR-8 ovarian,3.31 µM
same,TGI,OVCAR-8 ovarian,11.8 µM and 48.3 µM
same,GI50,OVCAR-3 ovarian,3.74 µM
same,TGI,OVCAR-3 ovarian,14.8 µM and 48.4 µM
same,GI50,HOP-62 NSCLC,1.38 µM
same,GI50,COLO 205 colon,0.424 µM
same,TGI,DMS 114 small cell lung,> 100 µM
same,TGI,SNB-78 CNS,> 100 µM
same,GI50,MOLT-4 leukemia,0.868 µM
same,TGI,DLD-1 colon,62.2 µM
same,GI50,SNB-75 CNS,1.43 µM
same,GI50,EKVX NSCLC,2.63 µM
same,TGI,EKVX NSCLC,11.1 µM and 58.6 µM
same,GI50,MALME-3M melanoma,3.1 µM
same,TGI,MALME-3M melanoma,12.6 µM and 52.7 µM
same,GI50,SNB-19 CNS,1.21 µM
same,TGI,M19-MEL melanoma,41.3 µM
same,TGI,DMS 273 small cell lung,25.8 µM
same,GI50,BT-549 breast,1.63 µM
same,TGI,BT-549 breast,5.87 µM and 17.8 µM
same,GI50,MCF7 breast,3.62 µM
same,TGI,MCF7 breast,16 µM and 59.1 µM
same,GI50,SK-OV-3 ovarian,1.2 µM
same,TGI,SK-OV-3 ovarian,9.4 µM and 57.1 µM
same,GI50,ACHN renal,1.6 µM
same,TGI,ACHN renal,3.63 µM and 30.8 µM
same,GI50,786-0 renal,2.33 µM
same,TGI,786-0 renal,7.76 µM and 25.4 µM
same,GI50,HCT-116 colon,1.49 µM
same,TGI,P388 leukemia,> 66.3 µM
same,GI50,U251 CNS,1.05 µM
same,GI50,NCI/ADR-RES ovarian,11.1 µM
same,TGI,NCI/ADR-RES ovarian,23.2 µM and 58.7 µM
same,GI50,NCI-H23 lung,3.17 µM
same,TGI,NCI-H23 lung,13.3 µM and 65.3 µM
COC1=CC(=O)C=C(OC)C1=O,TGI,A498 renal,3.39 µM
same,TGI,UACC-62 melanoma,11.6 µM
same,TGI,SK-MEL-5 melanoma,37.5 µM
same,TGI,SK-MEL-28 melanoma,46.5 µM
same,TGI,SF-539 CNS,37.8 µM
same,TGI,LOX IMVI melanoma,13.1 µM
same,TGI,SK-MEL-2 melanoma,17.7 µM
same,TGI,CCRF-CEM leukemia,4.88 µM
same,TGI,SN12K1 renal,18 µM
same,TGI,RXF 393 renal,20.7 µM
same,TGI,OVCAR-5 ovarian,52.2 µM
same,TGI,HOP-92 NSCLC,7.89 µM
same,TGI,P388/ADR leukemia,1.08 µM
same,TGI,HT29 colon,65.3 µM
same,TGI,RPMI-8226 leukemia,20.5 µM
same,TGI,XF 498 CNS,6.34 µM
same,TGI,NCI-H226 lung,30.8 µM
same,TGI,CAKI-1 renal,96.6 µM
same,TGI,HCC-2998 colon,56.2 µM
same,TGI,SN12C renal,35.1 µM
same,TGI,UACC-257 melanoma,34.4 µM
same,TGI,HOP-18 NSCLC,79.7 µM
same,TGI,UO-31 renal,54.1 µM
same,TGI,SF-268 CNS,15.3 µM
same,TGI,HCT-15 colon,80.9 µM
same,TGI,NCI-H460 lung,57.1 µM
same,TGI,KM20L2 colon,66.8 µM
same,TGI,A549 NSCLC,95.7 µM
same,TGI,KM12 colon,39.3 µM
same,TGI,IGROV1 ovarian,31.3 µM
same,TGI,NCI-H522 lung,34.4 µM
same,TGI,SF-295 CNS,34.6 µM
same,TGI,SW-620 colon,13.5 µM
same,TGI,K-562 leukemia,18 µM
same,TGI,OVCAR-4 ovarian,16.8 µM
same,TGI,HL-60(TB) leukemia,12.4 µM
same,TGI,OVCAR-8 ovarian,32.1 µM
same,TGI,OVCAR-3 ovarian,32.2 µM
same,TGI,HOP-62 NSCLC,54.3 µM
same,TGI,COLO 205 colon,40.3 µM
same,TGI,DMS 114 small cell lung,13.5 µM
same,TGI,SNB-78 CNS,56.8 µM
same,TGI,MOLT-4 leukemia,3.59 µM
same,TGI,DLD-1 colon,27.9 µM
same,TGI,SNB-75 CNS,55.9 µM
same,TGI,EKVX NSCLC,13 µM
same,TGI,MALME-3M melanoma,51 µM
same,TGI,SNB-19 CNS,27 µM
same,TGI,M19-MEL melanoma,8.19 µM
same,TGI,DMS 273 small cell lung,76.8 µM
same,TGI,MCF7 breast,42.7 µM
same,TGI,SK-OV-3 ovarian,40.3 µM
same,TGI,HCT-116 colon,15.1 µM
same,TGI,P388 leukemia,1.25 µM
same,TGI,U251 CNS,64.5 µM
same,TGI,NCI/ADR-RES ovarian,10.1 µM
same,TGI,NCI-H23 lung,22.7 µM
